Assay [1] has as its system CDK8 (TCF/LEF luciferase reporter in HCT116 cells). The assay is described as follows: Cell based TCF/LEF reporter assay (HCT116+TCF/LEF luciferase). Conditions: Homo sapiens, HCT-116, 24 h. The text has this:
Determine Inhibitor Activity Against CDK8 in Cell Based TCF/LEF Reporter Assay
The colorectal carcinoma cell line HCT116 was stably transduced with lentivirus encoding the TCF/LEF promoter upstream of a luciferase reporter gene (Qiagen) and single cell clones expressing this construct (referred to as HCT116+TCF/LEF) were isolated. HCT116 express endogenous mutant β-catenin^3, resulting in up-regulation of transcription through the TCF/LEF promoter. Expression of the TCF/LEF reporter construct in HCT116 results in constitutive expression of luciferase. Treatment of the cells with inhibitors of components of the β-catenin signaling pathway (such as CDK8) results in decreased expression of luciferase. The assay is performed as follows. The HCT116+TCF/LEF cell line is seeded in a 96 well plate in 50 μL of culture media at 1×10^4 cells/well and incubated at 37° C. overnight. Serial dilutions of compounds (in total volume of 50 μL culture media) are added to the cells and incubated at 37° C. for 24 hours. 4 wells of DMSO treated cells serve as high controls and cells treated with 10 uM of the reference compound CCT251545 (a known CDK8 inhibitor)^4 serve as low controls. The viability of the cells is assayed by the addition of […] reagent (Promega) followed by 30 minute incubation at 37° C. and quantification of the fluorescent signal (Ex400/Em505). The luciferase expression is then assayed by the addition of 25 μL ONE-Glo reagent (Promega) followed by 10 minute incubation at room temperature and quantification of the luminescence signal. The luminescence signal is normalized to the fluorescence signal to correct for any loss in cell viability over the 24 hour compound incubation period. The percentage inhibition at individual concentrations relative to high and low controls is calculated. The data are analyzed by using nonlinear regression to generate IC50 values.
For orientation: In a reporter assay the amount or activity of a reporter protein is the signal.

The test system of assay [2] is CDK8 (phosphorylation of STAT1 at serine 727 in A549 cells). The assay is described as follows: Cell based Phospho-STAT1 assay (IFNγ-stimulated A549 cells, AlphaLISA). Conditions: Homo sapiens, A549, A549 cells, phospho-STAT1 after IFNγ stimulation. The gist of the method: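 A549 cells given serial compound dilutions for 1 h at 37 °C, then stimulated with IFNγ at 10 ng/mL final for 30 min. Lysate STAT1 Ser727 phosphorylation measured by AlphaLISA; % inhibition vs stimulated/unstimulated DMSO controls, IC50 by nonlinear regression.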
For orientation: Alpha assays give light when donor and acceptor beads are brought close together.

As usually defined, the IC50 is the concentration needed to halve the response being measured. Higher therefore signals weaker potency.

On to `CC(C)(C#N)Cn1cc(-c2ccc(-c3cnn4ccnc(C5=CCC(C#N)CC5)c34)cc2)cn1` (centres unmarked) [Compound P-0048, 4-(3-(4-(1-(2-cyano-2-methylpropyl)-1H-pyrazol-4-yl)phenyl)pyrazolo[1,5-a]pyrazin-4-yl)cyclohex-3-ene-1-carbonitrile], for which the IC50 in assay [1] and in assay [2] was 0.1 to 100 nM each time.
For `CC(=O)Nc1cc(-c2cnn3ccnc(C4=CCC(C#N)CC4)c23)ccn1` (centres unmarked) [Compound P-0080, N-(4-(4-(4-cyanocyclohex-1-ene-1-yl)pyrazolo[1,5-a]pyrazin-3-yl)pyridin-2-yl)acetamide], the 50% inhibitory concentration (IC50) in assay [1] and in assay [2] was 0.1 to 100 nM throughout.
Regarding `N#CC1CCN(c2c(-c3ccc(OCCCN4CCOCC4)cc3)cnc3[nH]ccc23)CC1` [Compound P-0327, 1-(5-(4-(3-morpholinopropoxy)phenyl)-1H-pyrrolo[2,3-b]pyridin-4-yl)piperidine-4-carbonitrile], the IC50 in assay [1] and in assay [2] was 0.1 to 100 nM in each case.
Take `N#CC1CCC(c2nccn3ncc(-c4ccc(-c5cnn(CC(F)F)c5)cc4)c23)CC1` (centres unmarked) [Compound P-0021, (1s,4s)-4-(3-(4-(1-(2,2-difluoroethyl)-1H-pyrazol-4-yl)phenyl)pyrazolo[1,5-a]pyrazin-4-yl)cyclohexane-1-carbonitrile]: the concentration for half-maximal inhibition (IC50) in assay [1] and in assay [2] was 0.1 to 100 nM in each case.
For `CS(=O)(=O)Nc1ccc2cc(-c3cnn4ccnc(C5=CCC(C#N)CC5)c34)ccc2n1` (centres unmarked) [Compound P-0151, N-(6-(4-(4-cyanocyclohex-1-ene-1-yl)pyrazolo[1,5-a]pyrazin-3-yl)quinolin-2-yl)methanesulfonamide], the IC50 in assay [1] and in assay [2] was 0.1 to 100 nM each time.
`N#CC1CCC(c2cccn3ncc(-c4ccc(-n5cccn5)cc4)c23)CC1` (centres unmarked) [Compound P-0218, 4-(3-(4-(1H-pyrazol-1-yl)phenyl)pyrazolo[1,5-a]pyridin-4-yl)cyclohexane-1-carbonitrile]: the 50% inhibitory concentration (IC50) in assay [1] and in assay [2] was 0.1 to 100 nM throughout.
As to `Cn1cc(-c2ccc(-c3cnn4cccc(C5=CCC(C(=O)O)CC5)c34)cc2)cn1` (centres unmarked) [Compound P-0444, 4-(3-(4-(1-methyl-1H-pyrazol-4-yl)phenyl)pyrazolo[1,5-a]pyridin-4-yl)cyclohex-3-ene-1-carboxylic acid], the IC50 in assay [1] and in assay [2] was 100 to 1000 nM throughout.
`CC(C)(O)C#Cc1cccn2ncc(-c3cnn(-c4ccc(F)cc4)c3)c12` [Compound P-0283, 4-(3-(1-(4-fluorophenyl)-1H-pyrazol-4-yl)pyrazolo[1,5-a]pyridin-4-yl)-2-methylbut-3-yn-2-ol]: the half-inhibitory concentration (IC50) in assay [1] and in assay [2] was 100 to 1000 nM each time.
`COc1ccc2ccc(-c3cnn4ccnc(C5=CCC(C#N)CC5)c34)cc2n1` (centres unmarked) [Compound P-0165, 4-(3-(2-methoxyquinolin-7-yl)pyrazolo[1,5-a]pyrazin-4-yl)cyclohex-3-ene-1-carbonitrile]: the IC50 was in the range of 1000 to 10000 nM in assay [1] and 100 to 1000 nM in assay [2].
`CC(C)(O)Cn1cc(-c2ccc(-c3cnn4ccnc(C5CCC(C#N)CC5)c34)cc2F)cn1` (centres unmarked) [Compound P-0032, (1s,4s)-4-(3-(3-fluoro-4-(1-(2-hydroxy-2-methylpropyl)-1H-pyrazol-4-yl)phenyl)pyrazolo[1,5-a]pyrazin-4-yl)cyclohexane-1-carbonitrile]: the IC50 in assay [1] and in assay [2] was 0.1 to 100 nM each time.
On to `Cc1ccc2cc(-c3cnc4[nH]ccc4c3N3CCC(C#N)CC3)ccc2n1` [Compound P-0209, 1-(5-(2-methylquinolin-6-yl)-1H-pyrrolo[2,3-b]pyridin-4-yl)piperidine-4-carbonitrile], for which the IC50 in assay [1] and in assay [2] was 0.1 to 100 nM in each case.
For `Cc1ccncc1-c1ccc(-c2cnn3cccc(C#CC(C)(C)O)c23)cc1` [Compound P-0233, 2-methyl-4-(3-(4-(4-methylpyridin-3-yl)phenyl)pyrazolo[1,5-a]pyridin-4-yl)but-3-yl-2-ol], the half-inhibitory concentration (IC50) in assay [1] is 100 to 1000 nM; in assay [2], 1000 to 10000 nM.
Consider `CC(C)(C#Cc1nccn2ncc(-c3ccc4cc(NS(C)(=O)=O)ccc4c3)c12)C(N)=O` [Compound P-0115, 2,2-dimethyl-4-(3-(6-(methylsulfonamido)naphthalen-2-yl)pyrazolo[1,5-a]pyrazin-4-yl)but-3-ynamide], for which the IC50 in assay [1] and in assay [2] was 0.1 to 100 nM throughout.
With `Cc1nc2ccc(-c3cnn4ccnc(C5=CCC(C#N)CC5)c34)cc2s1` (centres unmarked) [Compound P-0149, 4-(3-(2-methylbenzo[d]thiazol-6-yl)pyrazolo[1,5-a]pyrazin-4-yl)cyclohex-3-ene-1-carbonitrile], the IC50 in assay [1] and in assay [2] was 0.1 to 100 nM in each case.
With `N#CC1CC=C(c2cccn3ncc(-c4ccc(OCC(O)CN5CCOCC5)cc4)c23)CC1` (centres unmarked) [Compound P-0178, 4-(3-(4-(2-hydroxy-3-morpholinopropoxy)phenyl)pyrazolo[1,5-a]pyridin-4-yl)cyclohex-3-ene-1-carbonitrile], the IC50 in assay [1] and in assay [2] was 0.1 to 100 nM each time.
With `Cc1cc(-c2cnn3ccnc(C4=CCC(C#N)CC4)c23)ccc1-c1cnn(CC(C)(C)O)c1` (centres unmarked) [Compound P-0024, 4-(3-(4-(1-(2-hydroxy-2-methylpropyl)-1H-pyrazol-4-yl)-3 methylphenyl)pyrazolo[1,5-a]pyrazin-4-yl)cyclohex-3-ene-1-carbonitrile], the half-maximal inhibitory concentration (IC50) in assay [1] and in assay [2] was 0.1 to 100 nM in each case.
For the compound `CS(=O)(=O)Nc1ccc2cc(-c3cnn4cccc(C5=CCC(C#N)CC5)c34)ccc2c1` (centres unmarked) [Compound P-0199, N-(6-(4-(4-cyanocyclohex-1-en-1-yl)pyrazolo[1,5-a]pyridin-3-yl)naphthalen-2-yl)methanesulfonamide], the IC50 in assay [1] and in assay [2] was 0.1 to 100 nM in each case.
In the case of `N#CC1CC=C(c2nccn3ncc(-c4ccc5c(cnn5CC(F)(F)F)c4)c23)CC1` (centres unmarked) [Compound P-0063, 4-(3-(1-(2,2,2-trifluoroethyl)-1H-indazol-5-yl)pyrazolo[1,5-a]pyrazin-4-yl)cyclohex-3-ene-1-carbonitrile], the half-inhibitory concentration (IC50) in assay [1] and in assay [2] was 0.1 to 100 nM in each case.
In the case of `CC(C)(C#Cc1cccn2ncc(-c3ccc(-c4cnn(CC5COC5)c4)cc3)c12)C(N)=O` [Compound P-0470, 2,2-dimethyl-4-(3-(4-(1-(oxetan-3-ylmethyl)-1H-pyrazol-4-yl)phenyl)pyrazolo[1,5-a]pyridin-4-yl)but-3-ynamid], the IC50 in assay [1] and in assay [2] was 0.1 to 100 nM in each case.
For the compound `CCCS(=O)(=O)Nc1ccc2cc(-c3cnn4ccnc(C5=CCC(C#N)CC5)c34)ccc2n1` (centres unmarked) [Compound P-0094, N-(6-(4-(4-cyanocyclohex-1-en-1-yl)pyrazolo[1,5-a]pyrazin-3-yl)quinolin-2-yl)propane-1-sulfonamide], the IC50 in assay [1] and in assay [2] was 0.1 to 100 nM in each case.
As for `N#CC1CCN(c2c(-c3ccc(-n4cccn4)cc3)cnc3[nH]ccc23)CC1` [Compound P-0219, 1-(5-(4-(1H-pyrazol-1-yl)phenyl)-1H-pyrrolo[2,3-b]pyridin-4-yl)piperidine-4-carbonitrile], the IC50 in assay [1] and in assay [2] was 0.1 to 100 nM each time.
In the case of `N#CC1CC=C(c2cccn3ncc(-c4ccc(OCCN5CCOCC5)cc4)c23)CC1` (centres unmarked) [Compound P-0183, 4-(3-(4-(2-morpholino-ethoxy)phenyl)pyrazolo[1,5-a]pyridin-4-yl)cyclohex-3-ene-1-carbonitrile], the concentration for half-maximal inhibition (IC50) in assay [1] and in assay [2] was 0.1 to 100 nM in each case.
`CC(C)(C#Cc1cccn2ncc(-c3ccc(-c4cnn(CCCC#N)c4)cc3)c12)C(N)=O` [Compound P-0461, 4-(3-(4-(1-(3-cyanopropyl)-1H-pyrazol-4-yl)phenyl)pyrazolo[1,5-a]pyridin-4-yl)-2,2-dimethylbut-3-ynamide]: the half-maximal inhibitory concentration (IC50) in assay [1] and in assay [2] was 0.1 to 100 nM each time.
`N#CC1CCC(c2nccn3ncc(-c4ccc(-c5cnn(CC6(C#N)CC6)c5)cc4)c23)CC1` (centres unmarked) [Compound P-0050, (1s,4s)-4-(3-(4-(1-((1-cyanocyclopropyl)methyl)-1H-pyrazol-4-yl)phenyl)pyrazolo[1,5-a]pyrazin-4-yl)cyclohexane-1-carbonitrile]: the IC50 in assay [1] and in assay [2] was 0.1 to 100 nM in each case.
For `Cn1cc(-c2ccc(-c3cnn4cccc(N5CC6CCC(C5)C6C#N)c34)cc2)cn1` (centres unmarked) [Compound P-0159, 3-(3-(4-(1-methyl-1H-pyrazol-4-yl)phenyl)pyrazolo[1,5-a]pyridin-4-yl)-3-azabicyclo[3.2.1]octane-8-carbonitrile], the IC50 in assay [1] and in assay [2] was 100 to 1000 nM each time.

For the origin of these results see patent publication US10703757B2, “Compounds and methods for CDK8 modulation and indications therefor” (Plexxikon Inc., priority 2016, dated 2020).
